# Measurements taken from US20030088061A1, “Materials and methods to modulate ligand binding/enzymatic activity of alpha/beta proteins containing an allosteric regulatory site” (priority 2000, published 2003).
# Experiments:
# Type in all cases: cell-based
# Jurkat cells = assay: Jurkat cell toxicity (CellTiter 96 Aqueous One Solution); conditions: four hr or 24 hr incubation
# Protocol: For 21 compounds, toxicity of Jurkat cells was assessed following a four hr or 24 hr incubation. […] A two-fold serial dilution series of each compound was tested in a concentration range of 40 μM to 0.15 μM.
# α4β1 = α4β1 (Homo sapiens, UniProt P05556+P13612); assay: Jurkat cell binding to immobilized VCAM-1/Ig; set-up: endogenous in cells; host or cells: Jurkat cells; conditions: Jurkat cells; tested 0.15 μM to 20 μM; read-out: α7β1/VCAM EC50
# Sequence of α4β1 (P13612 34-1032): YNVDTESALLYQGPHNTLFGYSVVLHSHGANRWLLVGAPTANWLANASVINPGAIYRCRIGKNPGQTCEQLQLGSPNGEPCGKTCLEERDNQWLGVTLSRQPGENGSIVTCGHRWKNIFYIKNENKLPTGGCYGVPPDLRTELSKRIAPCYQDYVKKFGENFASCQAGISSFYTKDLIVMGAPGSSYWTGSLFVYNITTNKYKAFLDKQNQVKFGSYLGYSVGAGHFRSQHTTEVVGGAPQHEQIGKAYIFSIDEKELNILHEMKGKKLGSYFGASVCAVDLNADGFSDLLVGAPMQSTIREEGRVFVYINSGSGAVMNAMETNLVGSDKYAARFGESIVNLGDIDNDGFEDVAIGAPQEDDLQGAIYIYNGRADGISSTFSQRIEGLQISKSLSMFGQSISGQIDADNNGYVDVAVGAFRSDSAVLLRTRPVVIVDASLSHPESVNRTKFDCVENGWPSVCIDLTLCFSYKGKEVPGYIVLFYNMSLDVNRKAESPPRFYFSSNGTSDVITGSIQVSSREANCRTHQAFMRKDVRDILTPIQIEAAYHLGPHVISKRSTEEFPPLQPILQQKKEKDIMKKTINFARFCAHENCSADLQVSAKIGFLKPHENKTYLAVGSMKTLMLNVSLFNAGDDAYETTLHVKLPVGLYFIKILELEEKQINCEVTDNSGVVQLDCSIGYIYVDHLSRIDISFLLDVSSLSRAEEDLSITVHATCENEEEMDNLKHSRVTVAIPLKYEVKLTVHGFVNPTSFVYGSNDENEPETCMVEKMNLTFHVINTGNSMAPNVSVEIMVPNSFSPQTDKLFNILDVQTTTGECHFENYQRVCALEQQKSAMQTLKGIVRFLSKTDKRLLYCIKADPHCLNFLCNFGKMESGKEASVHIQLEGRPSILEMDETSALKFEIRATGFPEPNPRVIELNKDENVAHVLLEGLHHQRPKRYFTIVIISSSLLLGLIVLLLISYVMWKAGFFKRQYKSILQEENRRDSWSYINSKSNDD
# Sequence of α4β1 (P05556 21-798): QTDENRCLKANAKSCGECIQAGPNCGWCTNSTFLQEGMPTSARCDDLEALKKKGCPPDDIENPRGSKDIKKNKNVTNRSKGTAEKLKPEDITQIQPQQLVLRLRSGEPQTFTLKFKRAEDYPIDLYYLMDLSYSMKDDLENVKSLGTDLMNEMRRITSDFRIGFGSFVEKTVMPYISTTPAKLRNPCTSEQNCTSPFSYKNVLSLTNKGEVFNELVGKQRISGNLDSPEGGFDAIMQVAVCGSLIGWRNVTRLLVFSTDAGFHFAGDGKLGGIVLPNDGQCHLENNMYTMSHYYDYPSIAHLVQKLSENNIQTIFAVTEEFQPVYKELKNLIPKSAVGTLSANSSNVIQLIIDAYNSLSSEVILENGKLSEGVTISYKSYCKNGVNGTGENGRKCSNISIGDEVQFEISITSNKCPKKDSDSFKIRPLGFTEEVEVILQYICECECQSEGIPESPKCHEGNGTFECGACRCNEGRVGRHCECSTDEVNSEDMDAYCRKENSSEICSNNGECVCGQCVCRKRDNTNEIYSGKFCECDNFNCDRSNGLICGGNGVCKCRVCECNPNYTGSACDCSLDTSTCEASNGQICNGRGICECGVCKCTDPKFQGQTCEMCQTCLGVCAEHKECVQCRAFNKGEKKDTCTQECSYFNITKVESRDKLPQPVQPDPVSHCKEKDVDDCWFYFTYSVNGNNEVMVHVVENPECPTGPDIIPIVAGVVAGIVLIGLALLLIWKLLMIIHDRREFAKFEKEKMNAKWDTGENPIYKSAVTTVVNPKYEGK
# Protocol: These 21 compounds were further analyzed for specificity and toxicity. […] The assay was carried out in a manner similar to the collagen adhesion assay described above except that […] with VCAM-1/Ig instead of collagen. Binding to VCAM-1 was dependent on surface expression of α4β1.
# α2β1 = target: T1, α2β1 (Homo sapiens, UniProt P05556+P17301); assay: Jurkat cell adhesion to rat type I collagen; conditions: Jurkat cells, PMA
# T1 construct: endogenous in cells; host or cells: Jurkat cells
# T1 sequence (P17301 30-1181): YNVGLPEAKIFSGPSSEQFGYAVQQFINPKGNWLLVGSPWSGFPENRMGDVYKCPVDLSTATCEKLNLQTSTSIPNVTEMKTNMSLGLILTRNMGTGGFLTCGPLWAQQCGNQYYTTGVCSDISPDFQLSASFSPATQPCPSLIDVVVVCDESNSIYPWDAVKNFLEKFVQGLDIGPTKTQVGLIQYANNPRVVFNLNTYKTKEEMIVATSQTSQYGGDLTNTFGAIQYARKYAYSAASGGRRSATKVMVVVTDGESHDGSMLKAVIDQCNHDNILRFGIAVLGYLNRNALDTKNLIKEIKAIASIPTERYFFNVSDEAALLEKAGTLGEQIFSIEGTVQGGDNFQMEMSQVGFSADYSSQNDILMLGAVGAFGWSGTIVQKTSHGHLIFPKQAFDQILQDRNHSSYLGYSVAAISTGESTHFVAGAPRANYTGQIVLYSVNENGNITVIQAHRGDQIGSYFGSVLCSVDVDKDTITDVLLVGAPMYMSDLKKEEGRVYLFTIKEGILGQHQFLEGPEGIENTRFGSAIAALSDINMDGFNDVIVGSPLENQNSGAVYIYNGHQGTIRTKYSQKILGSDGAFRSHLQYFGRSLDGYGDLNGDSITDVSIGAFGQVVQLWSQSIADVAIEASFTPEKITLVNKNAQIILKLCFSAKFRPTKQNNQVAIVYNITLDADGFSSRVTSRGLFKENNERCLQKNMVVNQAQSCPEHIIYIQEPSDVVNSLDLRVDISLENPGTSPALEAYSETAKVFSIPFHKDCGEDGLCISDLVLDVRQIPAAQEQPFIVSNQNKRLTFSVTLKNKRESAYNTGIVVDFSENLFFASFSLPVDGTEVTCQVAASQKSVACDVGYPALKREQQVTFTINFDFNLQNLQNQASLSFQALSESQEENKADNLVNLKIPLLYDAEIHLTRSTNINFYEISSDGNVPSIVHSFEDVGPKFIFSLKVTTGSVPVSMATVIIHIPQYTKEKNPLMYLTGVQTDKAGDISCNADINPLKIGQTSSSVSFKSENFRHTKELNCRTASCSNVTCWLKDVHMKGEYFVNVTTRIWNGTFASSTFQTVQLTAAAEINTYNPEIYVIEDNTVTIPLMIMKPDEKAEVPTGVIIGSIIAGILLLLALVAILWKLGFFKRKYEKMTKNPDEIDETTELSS
# T1 sequence (P05556 21-798 partner): as the sequence (P05556 21-798) above
# Protocol: Binding studies using monoclonal antibodies to each of these integrins has shown that Jurkat cell adhesion to rat type I collagen is mediated predominantly through interaction with alpha2. […] The assay was carried out using a modification of a procedure previously described [Sadhu, et al., supra]. Immunlon 4 plates (Dynex Technologies, Chantilly, Va.) were coated overnight at 4° C. with (i) 50 μl rat type I collagen (Sigma) (20 μg/ml in CMF-PBS), (ii) anti-beta1 monoclonal antibody 3S3 (5 μg/ml) in bicarbonate buffer, pH 9.6, (iii) or bicarbonate buffer alone. Plates were washed once with 200 μl/well D-PBS and blocked with 1% BSA (100 μl/well) in D-PBS for 1 hr at room temperature. […] Adherent cells were fixed by additional of 50 μl/well 14% glutaraldehyde in D-PBS and incubation at room temperature for 2 hr. The plates were washed with dH2O and stained with 50 μl/well 0.5% crystal violet in 10% ethanol for 5 min at room temperature. The plates were washed in several changes of dH2O, after which 70% ethanol was added. Adherent cells were quantitated by determining absorbance at 570 nm and 410 nm using a […] 250 microplate spectrophotometer system (Molecular Devices, Sunnyvale Calif.). The percentage of cell binding was determined using the formula below. [formula] Data was normalized using the formula: [formula] […] These 21 compounds were further analyzed for specificity and toxicity. […] The assay was carried out in a manner similar to the collagen adhesion assay described above except that […] with VCAM-1/Ig instead of collagen. Binding to VCAM-1 was dependent on surface expression of α4β1.
SMILES,TOXICITY LD50 (Jurkat cells),EC50 (α4β1),EC50 (α2β1)
CC(C)(C)c1ccc(Sc2ccccc2CNCCN2CCCC2)cc1.O=C(O)C(F)(F)F.O=C(O)C(F)(F)F [Cmpd AB],>40 µM,> 20 µM,13 µM
CN(CCCNCc1ccccc1Sc1c(Cl)cccc1Cl)c1ccccc1.O=C(O)C(F)(F)F.O=C(O)C(F)(F)F [Cmpd AD],3 µM,> 20 µM,2 µM
CN(CCCNCc1ccccc1Sc1ccc2ccccc2c1)c1ccccc1.O=C(O)C(F)(F)F.O=C(O)C(F)(F)F [Cmpd AE],30 µM,> 20 µM,7 µM
O=C(O)C(F)(F)F.O=C(O)C(F)(F)F.c1ccc(CN2CCC(NCc3ccccc3Sc3ccc4ccccc4c3)CC2)cc1 [Cmpd AF],35 µM,> 20 µM,6 µM
CCN1CCCC1CNCc1ccccc1Sc1ccc2ccccc2c1.O=C(O)C(F)(F)F.O=C(O)C(F)(F)F (stereo not drawn) [Cmpd AG],35 µM,> 20 µM,7 µM
O=C(O)C(F)(F)F.O=C(O)C(F)(F)F.c1ccc(Sc2ccc3ccccc3c2)c(CNCCN2CCCC2)c1 [Cmpd AH],38 µM,> 20 µM,9 µM
CN(C)CCCNCc1ccccc1Sc1ccc2ccccc2c1.O=C(O)C(F)(F)F.O=C(O)C(F)(F)F [Cmpd AI],33 µM,> 20 µM,6 µM
FC(F)(F)Oc1ccc(Sc2ccccc2CNC2CCN(Cc3ccccc3)CC2)cc1.O=C(O)C(F)(F)F.O=C(O)C(F)(F)F [Cmpd AJ],38 µM,> 20 µM,8 µM
CN(CCCNCc1ccccc1Sc1cccc(C(F)(F)F)c1)c1ccccc1.O=C(O)C(F)(F)F.O=C(O)C(F)(F)F [Cmpd AK],35 µM,> 20 µM,9 µM
CSc1ccc(Sc2ccccc2CNCCCN(C)c2ccccc2)cc1.O=C(O)C(F)(F)F.O=C(O)C(F)(F)F [Cmpd AL],20 µM,> 20 µM,8 µM
CCN1CCN(c2cc(-c3ccc(Sc4ccccc4C(C)C)c(C(F)(F)F)c3)ccn2)CC1.O=C(O)C(F)(F)F.O=C(O)C(F)(F)F [Cmpd AN],>40 µM,> 20 µM,17 µM
O=C(/C=C/c1ccc(Sc2ccc(Cl)cc2Cl)c([N+](=O)[O-])c1)N1CCNCC1 [Cmpd A],>40 µM,17 µM,14 µM
O=C(/C=C/c1ccc(Sc2ccc3c(c2)OCCO3)c([N+](=O)[O-])c1)N1CCNCC1 [Cmpd B],>40 µM,> 20 µM,17 µM
CC(C)c1ccc(Sc2ccc(N)cc2Cl)cc1 [Cmpd E],>40 µM,> 20 µM,16 µM
CC(=O)N1CCN(C(=O)C2CC2c2ccc(Sc3ccccc3C(C)C)c(Cl)c2Cl)CC1 (stereo not drawn) [Cmpd G],>40 µM,> 20 µM,16 µM
O=C(/C=C/c1ccc(Sc2cccc(N3CCC(N4CCCC4)CC3)c2)c(Cl)c1Cl)NCCCN1CCCC1=O [Cmpd J],>40 µM,> 20 µM,8 µM
Cl.O=C1CCCN1CCCNCc1ccc(Sc2cccc(Cl)c2Cl)c(Cl)c1 [Cmpd M],25 µM,> 20 µM,8 µM
CN1CCCN(C(=O)/C=C/c2ccc(Sc3ccc4c(ccn4C)c3)c(Cl)c2Cl)CC1.O=C(O)C(F)(F)F [Cmpd T],25 µM,15 µM,4 µM
CN1CCN(C(=O)/C=C/c2ccc(Sc3ccc(Cl)cc3Cl)c(Cl)c2)CC1 [Cmpd U],>40 µM,> 20 µM,15 µM
Nc1ccc(SCc2ccc(Cl)cc2Cl)c(Cl)c1 [Cmpd X],30 µM,> 20 µM,8 µM
N[C@@H]1Cc2ccccc2O[C@@H]1c1ccc2c(c1)CCO2 [Cmpd Y],25 µM,> 20 µM,7 µM
